{"source": "patent US20190350197A1", "about": "“Composition comprising polyurethane microcapsules comprising cinmethylin” (BASF Agro B.V., priority 2016, published 2019)", "origin": "cited, not measured here", "conditions": "at 20° C.", "data": [{"substance": "(±)-2-exo-(2-methylbenzyloxy)-1-methyl-4-isopropyl-7-oxabicyclo[2.2.1]heptane [Cinmethylin]", "values": [{"measurement": "solubility in water", "result": 0.063, "unit": "g-L^−1"}]}]}
